# Assays:
# Assay in all cases: GAL4-driven luciferase reporter assay in NIH3T3 cells
# Format in all cases: cell-based
# [1] = target: CfEcR-DEF mutant F48K (Choristoneura fumiferana, UniProt O77255, F331K); conditions: for Emax: NIH3T3, 40 h, read-out: Rel Max FI
# Method: (§1) This construct was prepared in the same way as in switch 1.1 above except wild-type CfEcR-DEF was replaced with mutant CfEcR-DEF comprising a ligand binding domain comprising a substitution mutation selected from Table 1 below.
# (§2) DNAs were transfected into mouse NIH3T3 cells (ATCC) as follows. Standard methods for culture and maintenance of the cells were followed. Cells were harvested and plated 96-well plates at 2,500 cells per well, in 50 μL of growth medium containing 10% fetal bovine serum (FBS). Twenty-four hours later, the cells were treated with 35 μL of serum-free growth medium containing either dimethylsulfoxide (DMSO; control) or a DMSO solution of ligand. The cells were then transfected using Superfect (Qiagen Inc.) transfection reagent. For each well, 0.625 μL of Superfect was mixed with 14.2 μL of serum-free growth medium. 0.16 μg of reporter construct and 0.04 μg of each receptor construct were added to the transfection reagent mix. The contents of the transfection mix were mixed in a vortex mixer and let stand at room temperature for 30 minutes. At the end of incubation, 15 μL of transfection mix was added to the cells. The cells were maintained at 37° C. and 5% CO2 for 48 hours in 5% FBS.
# (§3) Reporter Assays: Cells were harvested 40 hours after adding ligands. 125 μL of passive lysis buffer (part of Dual-Luciferase reporter assay system from Promega Corporation) were added to each well of the […] plate. The plates were placed on a rotary shaker for 15 minutes. Twenty μL of lysate were assayed. Luciferase activity was measured using Dual-Luciferase reporter assay system from Promega Corporation following the manufacturer's instructions. Fold induction (FI) activities were calculated by dividing relative light units (“RLU”) in ligand treated cells with RLU in DMSO treated cells (untreated control).
# [2] = target: CfEcR-DEF mutant F48R (Choristoneura fumiferana, UniProt O77255, F331R); conditions: for Emax: NIH3T3, 40 h, read-out: Rel Max FI
# Method: as §1, §2, §3
# [3] = target: CfEcR-DEF mutant I51M (Choristoneura fumiferana, UniProt O77255, I334M); conditions: for Emax: NIH3T3, 40 h, read-out: Rel Max FI
# Method: as §1, §2, §3
# [4] = target: CfEcR-DEF mutant L132E (Choristoneura fumiferana, UniProt O77255, L415E); conditions: for Emax: NIH3T3, 40 h, read-out: Rel Max FI
# Method: as §1, §2, §3
# [5] = target: CfEcR-DEF mutant L223K (Choristoneura fumiferana, UniProt O77255, L506K); conditions: for Emax: NIH3T3, 40 h, read-out: Rel Max FI
# Chain of CfEcR-DEF mutant L223K (P28702 298-449): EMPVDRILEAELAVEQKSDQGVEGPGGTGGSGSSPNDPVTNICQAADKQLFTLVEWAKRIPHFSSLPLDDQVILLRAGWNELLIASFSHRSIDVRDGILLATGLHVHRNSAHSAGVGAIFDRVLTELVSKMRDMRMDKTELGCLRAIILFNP
# Chain of CfEcR-DEF mutant L223K (O77255 entry or part of it L506K): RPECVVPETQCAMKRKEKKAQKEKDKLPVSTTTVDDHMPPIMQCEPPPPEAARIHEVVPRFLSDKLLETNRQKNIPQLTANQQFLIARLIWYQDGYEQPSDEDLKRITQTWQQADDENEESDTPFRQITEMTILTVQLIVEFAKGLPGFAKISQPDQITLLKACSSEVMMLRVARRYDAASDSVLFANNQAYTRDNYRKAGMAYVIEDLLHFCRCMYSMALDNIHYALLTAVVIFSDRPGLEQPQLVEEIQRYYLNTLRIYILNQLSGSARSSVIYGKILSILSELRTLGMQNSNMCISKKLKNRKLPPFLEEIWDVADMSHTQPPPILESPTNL
# Method: as §1, §2, §3
# [6] = target: CfEcR-DEF mutant L223R (Choristoneura fumiferana, UniProt O77255, L506R); conditions: for Emax: NIH3T3, 40 h, read-out: Rel Max FI
# Method: as §1, §2, §3
# [7] = target: CfEcR-DEF mutant L223Y (Choristoneura fumiferana, UniProt O77255, L506Y); conditions: for Emax: NIH3T3, 40 h, read-out: Rel Max FI
# Method: as §1, §2, §3
# [8] = target: CfEcR-DEF mutant L234R (Choristoneura fumiferana, UniProt O77255, L517R); conditions: for Emax: NIH3T3, 40 h, read-out: Rel Max FI
# Method: as §1, §2, §3
# [9] = target: CfEcR-DEF mutant L234W (Choristoneura fumiferana, UniProt O77255, L517W); conditions: for Emax: NIH3T3, 40 h, read-out: Rel Max FI
# Chain of CfEcR-DEF mutant L234W (O77255 entry or part of it L517W): as the sequence (O77255 entry or part of it L506K) above, with K300L, L311W counted along it
# Chain of CfEcR-DEF mutant L234W (P28702 299-449, further chain): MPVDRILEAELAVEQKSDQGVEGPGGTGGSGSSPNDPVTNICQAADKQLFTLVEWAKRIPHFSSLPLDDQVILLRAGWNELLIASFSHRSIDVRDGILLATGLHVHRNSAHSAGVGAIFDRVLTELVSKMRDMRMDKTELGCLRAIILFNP
# Method: as §1, §2, §3
# [10] = target: CfEcR-DEF mutant M125G (Choristoneura fumiferana, UniProt O77255, M408G)
# Method: as §1, §2, §3
# [11] = target: CfEcR-DEF mutant M125I (Choristoneura fumiferana, UniProt O77255, M408I); conditions: for Emax: NIH3T3, 40 h, read-out: Rel Max FI
# Chain of CfEcR-DEF mutant M125I (O77255 entry or part of it M408I): as the sequence (O77255 entry or part of it L506K) above, with M202I, K300L counted along it
# Chain of CfEcR-DEF mutant M125I (P28702 299-449, further chain): as the sequence (P28702 299-449, further chain) above
# Method: as §1, §2, §3
# [12] = target: CfEcR-DEF mutant M125N (Choristoneura fumiferana, UniProt O77255, M408N)
# Method: as §1, §2, §3
# [13] = target: CfEcR-DEF mutant M125S (Choristoneura fumiferana, UniProt O77255, M408S)
# Method: as §1, §2, §3
# [14] = target: CfEcR-DEF mutant M125V (Choristoneura fumiferana, UniProt O77255, M408V); conditions: for Emax: NIH3T3, 40 h, read-out: Rel Max FI
# Method: as §1, §2, §3
# [15] = target: CfEcR-DEF mutant M219A (Choristoneura fumiferana, UniProt O77255, M502A); conditions: for Emax: NIH3T3, 40 h, read-out: Rel Max FI
# Method: as §1, §2, §3
# [16] = target: CfEcR-DEF mutant M219K (Choristoneura fumiferana, UniProt O77255, M502K); conditions: for Emax: NIH3T3, 40 h, read-out: Rel Max FI
# Method: as §1, §2, §3
# [17] = target: CfEcR-DEF mutant M219W (Choristoneura fumiferana, UniProt O77255, M502W); conditions: for Emax: NIH3T3, 40 h, read-out: Rel Max FI
# Chain of CfEcR-DEF mutant M219W (P28702 299-449): as the sequence (P28702 299-449, further chain) above
# Chain of CfEcR-DEF mutant M219W (O77255 entry or part of it M502W): as the sequence (O77255 entry or part of it L506K) above, with M296W, K300L counted along it
# Method: as §1, §2, §3
# [18] = target: CfEcR-DEF mutant M219Y (Choristoneura fumiferana, UniProt O77255, M502Y); conditions: for Emax: NIH3T3, 40 h, read-out: Rel Max FI
# Chain of CfEcR-DEF mutant M219Y (P28702 299-449): as the sequence (P28702 299-449, further chain) above
# Chain of CfEcR-DEF mutant M219Y (O77255 entry or part of it M502Y): as the sequence (O77255 entry or part of it L506K) above, with M296Y, K300L counted along it
# Method: as §1, §2, §3
# [19] = target: CfEcR-DEF mutant T52G (Choristoneura fumiferana, UniProt O77255, T335G); conditions: for Emax: NIH3T3, 40 h, read-out: Rel Max FI
# Chain of CfEcR-DEF mutant T52G (O77255 entry or part of it T335G): as the sequence (O77255 entry or part of it L506K) above, with T129G, K300L counted along it
# Chain of CfEcR-DEF mutant T52G (P28702 298-449, further chain): as the sequence (P28702 298-449) above
# Method: as §1, §2, §3
# [20] = target: CfEcR-DEF mutant T52M (Choristoneura fumiferana, UniProt O77255, T335M); conditions: for Emax: NIH3T3, 40 h, read-out: Rel MaxFI
# Chain of CfEcR-DEF mutant T52M (O77255 entry or part of it T335M): as the sequence (O77255 entry or part of it L506K) above, with T129M, K300L counted along it
# Chain of CfEcR-DEF mutant T52M (P28702 298-449, further chain): as the sequence (P28702 298-449) above
# Method: as §1, §2, §3
# [21] = target: CfEcR-DEF mutant T52Q (Choristoneura fumiferana, UniProt O77255, T335Q); conditions: for Emax: NIH3T3, 40 h, read-out: Rel Max FI
# Method: as §1, §2, §3
# [22] = target: CfEcR-DEF mutant T52R (Choristoneura fumiferana, UniProt O77255, T335R); conditions: for Emax: NIH3T3, 40 h, read-out: Rel Max FI
# Chain of CfEcR-DEF mutant T52R (O77255 entry or part of it T335R): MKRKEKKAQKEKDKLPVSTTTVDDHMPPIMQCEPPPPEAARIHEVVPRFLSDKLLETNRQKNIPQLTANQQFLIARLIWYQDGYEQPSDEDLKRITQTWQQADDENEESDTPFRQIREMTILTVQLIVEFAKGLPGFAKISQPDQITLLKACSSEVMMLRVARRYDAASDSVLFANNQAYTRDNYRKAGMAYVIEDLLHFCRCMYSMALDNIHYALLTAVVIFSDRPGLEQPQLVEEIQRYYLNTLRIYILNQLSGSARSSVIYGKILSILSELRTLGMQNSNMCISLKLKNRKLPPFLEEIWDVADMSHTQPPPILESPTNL
# Chain of CfEcR-DEF mutant T52R (P28702 299-449, further chain): as the sequence (P28702 299-449, further chain) above
# Method: as §1, §2, §3
# [23] = target: CfEcR-DEF mutant T52W (Choristoneura fumiferana, UniProt O77255, T335W)
# Method: as §1, §2, §3
# [24] = target: CfEcR-DEF mutant W238L (Choristoneura fumiferana, UniProt O77255, W521L); conditions: for Emax: NIH3T3, 40 h, read-out: Rel Max FI
# Chain of CfEcR-DEF mutant W238L (P28702 299-449): as the sequence (P28702 299-449, further chain) above
# Chain of CfEcR-DEF mutant W238L (O77255 entry or part of it W521L): as the sequence (O77255 entry or part of it L506K) above, with K300L, W315L counted along it
# Method: as §1, §2, §3
# [25] = target: CfEcR-DEF mutant W238M (Choristoneura fumiferana, UniProt O77255, W521M); conditions: for Emax: NIH3T3, 40 h, read-out: Rel MaxFI
# Method: as §1, §2, §3
structure (smiles),measurement,setting,value
"CCCCC(N(NC(=O)c1ccc(CC)cc1)C(=O)c1cc(C)cc(C)c1)C(C)(C)C (centres unmarked) [RG-115840, 3,5-dimethyl-benzoic acid N-(1-tert-butyl-pentyl)-N′-(4-ethyl-benzoyl)-hydrazide]",EC50,[1],3.76 µM
same,Emax,[1],18%
same,EC50,[2],3.58 µM
same,Emax,[2],265%
same,EC50,[3],4.13 µM
same,Emax,[3],27%
same,EC50,[4],1.67 µM
same,Emax,[4],156%
same,EC50,[5],1 µM
same,Emax,[5],93%
same,EC50,[6],2 µM
same,Emax,[6],25%
same,EC50,[7],0.58 µM
same,Emax,[7],142%
same,EC50,[8],20 µM
same,Emax,[8],224%
same,EC50,[9],> 33 µM
same,Emax,[9],6%
same,EC50,[10],2.97 µM
same,EC50,[11],3.02 µM
same,Emax,[11],45%
same,EC50,[12],3.3 µM
same,EC50,[13],1.4 µM
same,EC50,[14],3.79 µM
same,Emax,[14],47%
same,EC50,[15],2.87 µM
same,Emax,[15],60%
same,EC50,[16],> 33 µM
same,Emax,[16],1%
same,EC50,[17],2.33 µM
same,Emax,[17],39%
same,EC50,[18],1 µM
same,Emax,[18],68%
same,EC50,[19],3.61 µM
same,Emax,[19],23%
same,EC50,[20],5 µM
same,Emax,[20],15%
same,EC50,[21],2 µM
same,Emax,[21],34%
same,EC50,[22],> 33 µM
same,Emax,[22],2%
same,EC50,[23],4.07 µM
same,EC50,[24],2 µM
same,Emax,[24],41%
same,EC50,[25],2 µM
same,Emax,[25],41%
"CCc1c(C(=O)NN(C(=O)c2cc(OC)c(C)c(OC)c2)C(C=C(C)C(C)(C)C)C(C)(C)C)ccc2c1OCCO2 (centres unmarked) [RG-115898, 3,5-dimethoxy-4-methyl-benzoic acid N-(1-tert-butyl-3,4,4-trimethyl-pent-2-enyl)-N′-(5-ethyl-2,3-dihydro-benzo[1,4]dioxine-6-carbonyl)-hydrazide]",EC50,[1],> 33 µM
same,Emax,[1],8%
same,EC50,[2],> 33 µM
same,Emax,[2],0%
same,EC50,[3],> 33 µM
same,Emax,[3],2%
same,EC50,[4],2.15 µM
same,Emax,[4],34%
same,Emax,[5],18%
same,EC50,[6],> 33 µM
same,Emax,[6],1%
same,EC50,[7],0.33 µM
same,Emax,[7],20%
same,EC50,[8],> 33 µM
same,Emax,[8],58%
same,EC50,[9],> 33 µM
same,Emax,[9],2%
same,EC50,[10],0.08 µM
same,EC50,[11],> 33 µM
same,Emax,[11],0%
same,EC50,[12],0.94 µM
same,EC50,[13],0.33 µM
same,EC50,[14],> 33 µM
same,Emax,[14],1%
same,EC50,[15],1 µM
same,Emax,[15],5%
same,EC50,[16],> 33 µM
same,Emax,[16],0%
same,EC50,[17],> 33 µM
same,Emax,[17],0%
same,EC50,[18],> 33 µM
same,Emax,[18],1%
same,EC50,[19],> 33 µM
same,Emax,[19],1%
same,EC50,[20],> 33 µM
same,Emax,[20],1%
same,EC50,[21],20 µM
same,Emax,[21],8%
same,EC50,[22],> 33 µM
same,Emax,[22],0%
same,EC50,[23],0.18 µM
same,Emax,"[23]; NIH3T3, 40 h, read-out: Rel Max FI",424%
same,EC50,[24],> 33 µM
same,Emax,[24],0%
same,EC50,[25],> 33 µM
same,Emax,[25],3%

# Source: patent US9163256B2, “Mutant receptors and their use in a nuclear receptor-based inducible gene expression system” (priority 2004, dated 2015)
